The results in this text go back to ChEMBL document CHEMBL4673218, “Kojyl cinnamate esters are peroxisome proliferator-activated receptor α/γ dual agonists” (Bioorg Med Chem, 2018).

Structures are written as SMILES. The source made the active and inactive calls. The rule behind the calls is not given here.

For assay [1], the target named is T1, PPAR alpha/gamma (Homo sapiens) (UniProt P37231+Q07869). Nature of the assay: Agonist activity at PPARalpha/PPARgamma in human AT-MSC cells assessed as upregulation of FABP4 mRNA at 10 uM incubated for 3 days by qRT-PCR analysis. The following applies: Adipose tissue derived mesenchymal stem cell, filed as agonist, time 3.0 day. The assay is classed as cell-based.

Assay [2] has as its target T1, PPAR alpha/gamma (Homo sapiens). Nature of the assay: Agonist activity at PPARalpha/PPARgamma in human AT-MSC cells assessed as upregulation of adiponectin mRNA at 10 uM incubated for 3 days by qRT-PCR analysis. The following applies: Adipose tissue derived mesenchymal stem cell, filed as agonist, time 3.0 day. The assay is classed as cell-based.
The subject of assay [3] is Adipose tissue derived mesenchymal stem cell. The assay can be described thus: Induction of adipogenesis in human AT-MSC cells assessed as increase in lipid droplet at 30 uM in IDX medium incubated for 5 days by Oil Red O staining based inverted phase microscopy relative to IDX control. The assay is classed as functional. The note with it: time 5.0 day.
Assay [4] relates to NHEK. Nature of the assay: Inhibition of UVB-induced PGE2 level in human NHEK cells at 10 uM incubated for 24 hrs by ELISA. The assay is classed as functional, cell-based.
The subject of assay [5] is NHEK. Nature of the assay: Inhibition of UVB-induced PTGS2 mRNA in human NHEK cells at 10 uM incubated for 24 hrs by qRT-PCR analysis. It counts as functional, cell-based.
The target of assay [6] is T1, PPAR alpha/gamma (Homo sapiens). Nature of the assay: Agonist activity at PPARalpha/PPARgamma in human NHEK cells assessed as upregulation of ACACB mRNA at 10 uM incubated for 3 days by qRT-PCR analysis. The note with it: time 3.0 day. The assay is classed as cell-based.
Assay [7] has the same target. The assay can be described thus: Agonist activity at PPARalpha/PPARgamma in human NHEK cells assessed as upregulation of FADS2 mRNA at 10 uM incubated for 3 days by qRT-PCR analysis. It counts as cell-based. The following applies: filed as agonist, time 3.0 day.
Assay [8] shares this target. Nature of the assay: Agonist activity at PPARalpha/PPARgamma in human AT-MSC cells assessed as upregulation of FADS2 mRNA at 10 uM incubated for 3 days by qRT-PCR analysis. The note with it: Adipose tissue derived mesenchymal stem cell, filed as agonist, time 3.0 day. It counts as cell-based.
The target is the same in assay [9]. The assay can be described thus: Agonist activity at PPARalpha/PPARgamma in human AT-MSC cells assessed as upregulation of FASN mRNA at 10 uM incubated for 3 days by qRT-PCR analysis. The assay is classed as cell-based. The note with it: Adipose tissue derived mesenchymal stem cell, filed as agonist, time 3.0 day.
The target is the same in assay [10]. The assay can be described thus: Agonist activity at PPARalpha/PPARgamma in human AT-MSC cells assessed as upregulation of HMGCS2 mRNA at 10 uM incubated for 3 days by qRT-PCR analysis. The assay is classed as cell-based. The following applies: Adipose tissue derived mesenchymal stem cell, filed as agonist, time 3.0 day.

T1 sequence (P37231 whole entry, looked up): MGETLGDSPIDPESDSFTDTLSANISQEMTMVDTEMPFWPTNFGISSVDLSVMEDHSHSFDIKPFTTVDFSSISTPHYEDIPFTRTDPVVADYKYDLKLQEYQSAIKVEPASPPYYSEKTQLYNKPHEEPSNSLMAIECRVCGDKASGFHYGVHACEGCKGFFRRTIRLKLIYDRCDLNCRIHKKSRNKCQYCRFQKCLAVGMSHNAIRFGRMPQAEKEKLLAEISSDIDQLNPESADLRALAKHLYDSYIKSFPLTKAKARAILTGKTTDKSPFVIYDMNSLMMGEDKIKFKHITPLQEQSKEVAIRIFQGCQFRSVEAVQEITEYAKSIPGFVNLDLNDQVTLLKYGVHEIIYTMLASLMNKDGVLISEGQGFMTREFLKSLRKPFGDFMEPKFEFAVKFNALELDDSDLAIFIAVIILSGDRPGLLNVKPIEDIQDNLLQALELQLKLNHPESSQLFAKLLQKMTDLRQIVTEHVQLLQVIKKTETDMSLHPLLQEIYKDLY
T1 sequence (Q07869 whole entry, looked up): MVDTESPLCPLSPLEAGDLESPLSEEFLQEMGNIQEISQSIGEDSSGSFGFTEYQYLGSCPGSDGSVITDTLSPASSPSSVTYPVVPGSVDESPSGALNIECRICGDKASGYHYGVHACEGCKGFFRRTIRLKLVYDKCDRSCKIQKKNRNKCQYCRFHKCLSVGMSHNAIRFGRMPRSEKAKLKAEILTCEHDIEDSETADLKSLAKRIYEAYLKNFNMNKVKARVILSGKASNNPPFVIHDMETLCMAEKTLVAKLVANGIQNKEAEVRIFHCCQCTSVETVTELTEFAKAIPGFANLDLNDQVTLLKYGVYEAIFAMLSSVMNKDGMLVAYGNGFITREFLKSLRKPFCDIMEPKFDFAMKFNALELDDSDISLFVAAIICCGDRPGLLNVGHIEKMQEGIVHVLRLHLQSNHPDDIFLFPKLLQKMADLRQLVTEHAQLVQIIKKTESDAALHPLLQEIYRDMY

As to `COc1ccc(OC)c(/C=C/C(=O)OCc2cc(=O)c(O)co2)c1`, the outcome in [1], in assay [2], in assay [3], in assay [7], in assay [8] and in assay [9] was Active. For the same compound, the outcome in assay [10] was Active. Also, the inhibition entry in [4] and in assay [5] was “Active” throughout. In addition, in [6], the outcome was inactive.
